Columns and labels:
Experiment in all cases: relative viability (nuclei count vs DMSO), 5 days (fraction); higher = more cells survive
[1] = compound: CC1(C)CCC(CN2CCN(c3ccc(C(=O)NS(=O)(=O)c4ccc(NCC5CCOCC5)c([N+](=O)[O-])c4)c(Oc4cnc5[nH]ccc5c4)c3)CC2)=C(c2ccc(Cl)cc2)C1 [Venetoclax] + O=C(c1cc(Cc2n[nH]c(=O)c3ccccc23)ccc1F)N1CCN(C(=O)C2CC2)CC1 [Olaparib] (partner 8 µM)
Outline: (§1)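 Each reported value is a median over duplicate plates. It expresses relative viability: treated-well nuclei count divided by vehicle-well nuclei count. Lung cancer cell lines in 1536-well plates were dosed by pin tool a day after seeding, alone with one drug or with a fixed anchor-drug dose plus five library-drug doses (not always all listed) in √10 steps, and nuclei were counted after 5 days.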

[2] = compound: Cn1cnc2c(F)c(Nc3ccc(Br)cc3Cl)c(C(=O)NOCCO)cc21 [Selumetinib] + CC(=O)c1c(C)c2cnc(Nc3ccc(N4CCNCC4)cn3)nc2n(C2CCCC2)c1=O [Palbociclib] (partner 0.5 µM)
Outline: as §1

[3] = compound: Cn1cnc2c(F)c(Nc3ccc(Br)cc3Cl)c(C(=O)NOCCO)cc21 [Selumetinib] + CC1(C)CCC(c2ccc(Cl)cc2)=C(CN2CCN(c3ccc(C(=O)NS(=O)(=O)c4ccc(N[C@H](CCN5CCOCC5)CSc5ccccc5)c(S(=O)(=O)C(F)(F)F)c4)cc3)CC2)C1 [Navitoclax] (partner 0.5 µM)
Outline: as §1

[4] = compound: Cn1cnc2c(F)c(Nc3ccc(Br)cc3Cl)c(C(=O)NOCCO)cc21 [Selumetinib] + CS(=O)(=O)CCNCc1ccc(-c2ccc3ncnc(Nc4ccc(OCc5cccc(F)c5)c(Cl)c4)c3c2)o1 [Lapatinib] (partner 2 µM)
Outline: as §1

UMC-11
relative viability ([1]; first compound 0.01 µM): 0.401 | relative viability ([1]; first compound 0.03162 µM): 0.322 | relative viability ([1]; first compound 0.1 µM): 0.303 | relative viability ([1]; first compound 0.3162 µM): 0.379 | relative viability ([1]; first compound 1 µM): 0.886 | relative viability ([2]; first compound 0.02 µM): 0.309 | relative viability ([2]; first compound 0.06325 µM): 0.37 | relative viability ([2]; first compound 0.2 µM): 0.306 | relative viability ([2]; first compound 0.6325 µM): 0.34 | relative viability ([3]; first compound 0.02 µM): 0.273 | relative viability ([3]; first compound 0.06325 µM): 0.311 | relative viability ([3]; first compound 0.2 µM): 0.3 | relative viability ([3]; first compound 0.6325 µM): 0.314 | relative viability ([4]; first compound 0.02 µM): 0.954 | relative viability ([4]; first compound 0.06325 µM): 0.897 | relative viability ([4]; first compound 0.2 µM): 0.972 | relative viability ([4]; first compound 0.6325 µM): 1.02
